Laboratory results published in ChEMBL document CHEMBL6074671, “Discovery of Pyridine-2-Carboxamides Derivatives as Potent and Selective HPK1 Inhibitors for the Treatment of Cancer” (J Med Chem, 2024).
≈ marks a conversion by molar mass, not a printed value.

Experiments:
[1] = molecular target: Mitogen-activated protein kinase kinase kinase kinase 1 (Homo sapiens, UniProt Q92918); assay: Inhibition of human recombinant wild type N-terminal HPK1 (1 to 346 residues) infected in insect Sf21 cells using fluorescein-PKC as substrate preincubated for 10 mins followed by substrate addition and measured after 90 mins by microplate reader based analysis; format: single protein
Chain of Mitogen-activated protein kinase kinase kinase kinase 1 (Q92918 whole entry, the tested form may be a part): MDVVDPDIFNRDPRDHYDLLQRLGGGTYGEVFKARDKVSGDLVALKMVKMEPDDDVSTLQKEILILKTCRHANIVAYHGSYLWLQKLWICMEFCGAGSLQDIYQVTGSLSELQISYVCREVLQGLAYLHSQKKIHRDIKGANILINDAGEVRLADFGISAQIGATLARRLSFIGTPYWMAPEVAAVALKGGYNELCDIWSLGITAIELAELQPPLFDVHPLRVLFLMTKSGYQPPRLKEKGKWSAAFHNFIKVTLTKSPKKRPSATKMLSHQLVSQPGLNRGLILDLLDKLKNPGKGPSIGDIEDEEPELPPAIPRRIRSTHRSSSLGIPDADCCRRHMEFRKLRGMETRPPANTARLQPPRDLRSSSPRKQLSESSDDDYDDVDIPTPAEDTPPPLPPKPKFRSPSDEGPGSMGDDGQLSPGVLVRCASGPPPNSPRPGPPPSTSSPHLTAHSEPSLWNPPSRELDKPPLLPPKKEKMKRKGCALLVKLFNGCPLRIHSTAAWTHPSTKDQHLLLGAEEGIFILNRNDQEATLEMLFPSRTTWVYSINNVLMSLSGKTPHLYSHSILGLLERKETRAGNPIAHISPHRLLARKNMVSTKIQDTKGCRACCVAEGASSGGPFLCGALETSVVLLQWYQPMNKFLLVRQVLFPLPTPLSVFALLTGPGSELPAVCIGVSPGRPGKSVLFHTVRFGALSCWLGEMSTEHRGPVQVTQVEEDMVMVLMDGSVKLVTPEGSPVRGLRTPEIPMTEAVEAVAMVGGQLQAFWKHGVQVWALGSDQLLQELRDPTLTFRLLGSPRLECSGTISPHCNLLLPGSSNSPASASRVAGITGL

[2] = molecular target: T1, Mitogen-activated protein kinase kinase kinase kinase 3 (Homo sapiens, UniProt Q8IVH8); assay: Inhibition of GLK (unknown origin)
T1 sequence (Q8IVH8 whole entry): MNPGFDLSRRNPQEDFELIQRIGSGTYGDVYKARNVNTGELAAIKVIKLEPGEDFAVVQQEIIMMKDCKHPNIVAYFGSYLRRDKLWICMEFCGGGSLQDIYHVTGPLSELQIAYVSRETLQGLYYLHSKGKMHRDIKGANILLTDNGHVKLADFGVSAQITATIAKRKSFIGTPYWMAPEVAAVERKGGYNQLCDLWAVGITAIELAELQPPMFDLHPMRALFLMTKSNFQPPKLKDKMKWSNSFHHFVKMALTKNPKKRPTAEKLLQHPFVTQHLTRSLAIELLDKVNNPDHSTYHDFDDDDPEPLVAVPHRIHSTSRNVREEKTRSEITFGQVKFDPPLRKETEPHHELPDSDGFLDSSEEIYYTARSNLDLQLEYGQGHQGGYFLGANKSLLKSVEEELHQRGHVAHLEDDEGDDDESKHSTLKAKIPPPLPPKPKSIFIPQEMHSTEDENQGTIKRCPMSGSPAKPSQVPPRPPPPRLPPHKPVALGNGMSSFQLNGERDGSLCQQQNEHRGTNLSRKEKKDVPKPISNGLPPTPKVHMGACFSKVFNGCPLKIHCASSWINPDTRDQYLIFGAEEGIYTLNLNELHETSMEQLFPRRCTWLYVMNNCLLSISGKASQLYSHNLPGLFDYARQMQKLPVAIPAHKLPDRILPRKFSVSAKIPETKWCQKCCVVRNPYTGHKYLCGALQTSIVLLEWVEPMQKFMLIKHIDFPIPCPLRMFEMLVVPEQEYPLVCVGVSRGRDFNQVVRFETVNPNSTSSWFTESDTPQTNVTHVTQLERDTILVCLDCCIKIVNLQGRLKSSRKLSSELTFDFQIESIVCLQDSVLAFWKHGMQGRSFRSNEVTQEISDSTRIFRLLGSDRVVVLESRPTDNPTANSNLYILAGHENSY

[3] = Half life in Sprague-Dawley rat at 10 mg/kg, po; format: ADME, organism-based; conditions: in vivo
[4] = Oral bioavailability n Sprague-Dawley rat at 10 mg/kg; format: ADME, organism-based; conditions: in vivo
[5] = Half life in Balb/c mouse at 10 mg/kg, po; format: ADME, organism-based; conditions: in vivo
[6] = molecular target: Tyrosine-protein kinase Lck (Homo sapiens, UniProt P06239); assay: Inhibition of LCK (unknown origin)
Chain of Tyrosine-protein kinase Lck (P06239 whole entry): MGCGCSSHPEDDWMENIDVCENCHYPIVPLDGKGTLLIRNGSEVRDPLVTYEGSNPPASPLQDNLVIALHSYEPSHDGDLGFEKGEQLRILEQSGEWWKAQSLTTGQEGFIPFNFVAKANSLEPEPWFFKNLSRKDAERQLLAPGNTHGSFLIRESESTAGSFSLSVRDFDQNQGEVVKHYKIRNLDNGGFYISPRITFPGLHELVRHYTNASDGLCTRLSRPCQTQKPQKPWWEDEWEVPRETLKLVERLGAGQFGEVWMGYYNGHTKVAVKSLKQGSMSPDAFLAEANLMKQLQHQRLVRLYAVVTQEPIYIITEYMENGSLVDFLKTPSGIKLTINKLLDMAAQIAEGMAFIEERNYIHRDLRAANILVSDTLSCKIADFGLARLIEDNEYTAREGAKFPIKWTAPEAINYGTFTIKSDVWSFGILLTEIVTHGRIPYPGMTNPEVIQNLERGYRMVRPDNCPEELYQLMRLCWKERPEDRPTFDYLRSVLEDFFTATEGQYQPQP

[7] = molecular target: Tyrosine-protein kinase SYK (Homo sapiens, UniProt P43405); assay: Inhibition of SYK (unknown origin)
[8] = molecular target: Tyrosine-protein kinase Lyn (Homo sapiens, UniProt P07948); assay: Inhibition of LYNa (unknown origin)
Chain of Tyrosine-protein kinase Lyn (P07948 whole entry): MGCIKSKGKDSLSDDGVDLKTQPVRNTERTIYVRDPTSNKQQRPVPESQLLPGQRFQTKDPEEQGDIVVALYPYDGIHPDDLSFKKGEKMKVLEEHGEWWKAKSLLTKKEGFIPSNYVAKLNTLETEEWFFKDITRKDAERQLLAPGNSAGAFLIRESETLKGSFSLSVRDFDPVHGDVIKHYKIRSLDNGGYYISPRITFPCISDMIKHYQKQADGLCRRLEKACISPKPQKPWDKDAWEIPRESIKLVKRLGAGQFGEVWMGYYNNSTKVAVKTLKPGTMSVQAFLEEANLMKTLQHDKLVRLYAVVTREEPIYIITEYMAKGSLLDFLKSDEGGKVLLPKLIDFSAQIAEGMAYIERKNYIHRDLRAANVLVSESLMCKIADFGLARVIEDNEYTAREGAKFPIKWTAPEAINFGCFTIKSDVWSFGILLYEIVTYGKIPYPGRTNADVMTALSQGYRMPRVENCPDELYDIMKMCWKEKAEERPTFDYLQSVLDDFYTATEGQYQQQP

[9] = molecular target: Serine/threonine-protein kinase 4 (Homo sapiens, UniProt Q13043); assay: Inhibition of MST1 (unknown origin)
Chain of Serine/threonine-protein kinase 4 (Q13043 whole entry): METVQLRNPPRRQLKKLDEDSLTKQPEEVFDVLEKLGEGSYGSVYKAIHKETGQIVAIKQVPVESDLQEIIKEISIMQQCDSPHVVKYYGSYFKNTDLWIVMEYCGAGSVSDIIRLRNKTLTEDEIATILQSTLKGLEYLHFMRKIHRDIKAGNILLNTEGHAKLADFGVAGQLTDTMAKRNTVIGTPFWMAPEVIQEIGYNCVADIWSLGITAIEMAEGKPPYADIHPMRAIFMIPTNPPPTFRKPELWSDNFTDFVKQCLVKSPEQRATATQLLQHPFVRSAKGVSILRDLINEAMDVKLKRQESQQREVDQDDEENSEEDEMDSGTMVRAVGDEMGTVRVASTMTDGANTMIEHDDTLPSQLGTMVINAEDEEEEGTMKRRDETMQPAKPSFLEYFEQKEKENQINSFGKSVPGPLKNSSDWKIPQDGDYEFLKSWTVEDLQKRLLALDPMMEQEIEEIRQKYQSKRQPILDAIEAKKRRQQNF

[10] = molecular target: Cyclin-dependent kinase 2 (Homo sapiens, UniProt P24941); assay: Inhibition of CDK2 (unknown origin)
[11] = molecular target: Tyrosine-protein kinase JAK2 (Homo sapiens, UniProt O60674); assay: Inhibition of JAK2 (unknown origin)
Chain of Tyrosine-protein kinase JAK2 (O60674 whole entry): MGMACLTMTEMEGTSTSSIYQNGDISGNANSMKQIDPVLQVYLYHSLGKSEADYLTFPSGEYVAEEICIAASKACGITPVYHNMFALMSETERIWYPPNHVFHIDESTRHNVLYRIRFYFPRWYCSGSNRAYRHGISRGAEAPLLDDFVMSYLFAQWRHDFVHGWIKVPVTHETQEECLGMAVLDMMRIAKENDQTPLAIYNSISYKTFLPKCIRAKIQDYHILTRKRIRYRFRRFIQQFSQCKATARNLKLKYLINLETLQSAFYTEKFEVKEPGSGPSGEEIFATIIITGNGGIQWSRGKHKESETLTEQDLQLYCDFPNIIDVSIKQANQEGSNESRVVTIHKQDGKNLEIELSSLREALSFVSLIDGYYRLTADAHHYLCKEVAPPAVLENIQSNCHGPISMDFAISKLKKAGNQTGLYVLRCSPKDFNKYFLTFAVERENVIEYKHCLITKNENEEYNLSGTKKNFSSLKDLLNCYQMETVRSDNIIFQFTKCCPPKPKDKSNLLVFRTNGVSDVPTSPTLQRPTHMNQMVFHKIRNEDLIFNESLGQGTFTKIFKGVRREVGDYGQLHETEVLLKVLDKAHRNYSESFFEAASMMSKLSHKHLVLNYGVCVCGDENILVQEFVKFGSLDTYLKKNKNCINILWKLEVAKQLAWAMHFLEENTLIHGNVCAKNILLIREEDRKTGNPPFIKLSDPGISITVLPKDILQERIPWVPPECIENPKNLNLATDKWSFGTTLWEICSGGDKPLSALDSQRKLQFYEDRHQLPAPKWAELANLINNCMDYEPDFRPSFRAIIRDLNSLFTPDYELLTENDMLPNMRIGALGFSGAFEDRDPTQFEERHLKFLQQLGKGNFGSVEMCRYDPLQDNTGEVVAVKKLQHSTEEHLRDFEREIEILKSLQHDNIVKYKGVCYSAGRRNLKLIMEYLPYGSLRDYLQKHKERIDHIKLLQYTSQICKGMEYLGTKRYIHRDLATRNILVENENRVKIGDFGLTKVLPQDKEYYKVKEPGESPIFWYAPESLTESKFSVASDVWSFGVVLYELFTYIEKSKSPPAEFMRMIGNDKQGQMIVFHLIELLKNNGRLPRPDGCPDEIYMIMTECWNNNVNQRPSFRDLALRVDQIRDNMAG

[12] = molecular target: Serine/threonine-protein kinase PAK 1 (Homo sapiens, UniProt Q13153); assay: Inhibition of PAK1 (unknown origin)
Chain of Serine/threonine-protein kinase PAK 1 (Q13153 whole entry): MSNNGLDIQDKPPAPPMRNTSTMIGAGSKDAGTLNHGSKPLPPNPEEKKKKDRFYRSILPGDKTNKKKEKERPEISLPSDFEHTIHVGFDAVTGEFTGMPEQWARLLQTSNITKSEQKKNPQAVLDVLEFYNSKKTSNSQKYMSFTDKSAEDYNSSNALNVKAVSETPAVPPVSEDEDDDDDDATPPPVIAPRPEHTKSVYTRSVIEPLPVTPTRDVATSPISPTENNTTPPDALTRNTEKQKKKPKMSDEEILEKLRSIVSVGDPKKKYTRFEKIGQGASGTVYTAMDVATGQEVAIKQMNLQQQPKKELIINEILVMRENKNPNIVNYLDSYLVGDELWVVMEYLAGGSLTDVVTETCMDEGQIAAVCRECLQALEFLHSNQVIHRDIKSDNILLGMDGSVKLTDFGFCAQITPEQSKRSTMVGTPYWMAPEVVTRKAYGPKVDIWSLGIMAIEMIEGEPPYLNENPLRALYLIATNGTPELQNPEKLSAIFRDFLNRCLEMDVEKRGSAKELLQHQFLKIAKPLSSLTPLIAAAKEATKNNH

[13] = molecular target: Tyrosine-protein kinase Blk (Homo sapiens, UniProt P51451); assay: Inhibition of BLK (unknown origin)
Chain of Tyrosine-protein kinase Blk (P51451 whole entry): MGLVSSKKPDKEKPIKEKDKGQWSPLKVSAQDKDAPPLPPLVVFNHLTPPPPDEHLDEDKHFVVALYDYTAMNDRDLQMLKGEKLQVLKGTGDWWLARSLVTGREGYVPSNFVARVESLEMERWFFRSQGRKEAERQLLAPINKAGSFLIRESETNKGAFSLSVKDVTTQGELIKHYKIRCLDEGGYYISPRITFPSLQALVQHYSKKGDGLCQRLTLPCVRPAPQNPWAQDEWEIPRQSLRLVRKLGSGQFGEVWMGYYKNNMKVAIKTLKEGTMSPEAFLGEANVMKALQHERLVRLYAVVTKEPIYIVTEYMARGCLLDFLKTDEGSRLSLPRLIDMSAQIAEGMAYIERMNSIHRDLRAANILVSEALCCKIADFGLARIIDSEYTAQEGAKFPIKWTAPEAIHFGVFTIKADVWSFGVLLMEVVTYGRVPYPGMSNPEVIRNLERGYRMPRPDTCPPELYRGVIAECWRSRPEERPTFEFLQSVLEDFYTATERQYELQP

CT26 [14] = assay: Antitumor activity against mouse CT26 cells implanted in Balb/c mouse model assessed as tumor growth inhibition administered as po dose BID measured after 15 days relative to control; format: functional; conditions: time 15 day
CT26 [15] = assay: Antitumor activity against mouse CT26 cells implanted in Balb/c mouse model assessed as tumor growth inhibition at high dose administered as po BID measured after 15 days relative to control; format: functional; conditions: time 15 day
[16] = Toxicity in Balb/c mouse assessed as effect on body weight loss at 1.5 to 12 mg/kg, po BID measured after 15 days in presence of anti-PD1; format: organism-based; conditions: in vivo, 360 h, dose 1.5-12 mg/kg, time 15 day
MC-38 = assay: Antitumor activity against mouse MC38 cells implanted in C57BL/6 mouse model assessed as tumor growth inhibition at 3 mg/kg, po BID measured after 12 days relative to control; format: functional; conditions: MC-38, 288 h, time 12 day, read-out: TGI
[17] = Toxicity in C57BL/6 mouse implanted with mouse MC38 cells assessed as effect on body weight loss at low dose, po BID measured after 12 days in presence of anti-PD-1; format: organism-based; conditions: in vivo, 288 h, time 12 day
[18] = Kinetic solubility of the compound in PBS buffer at pH 7.4 measured after 24 hrs by HPL-UV analysis; format: physicochemical; conditions: read-out: Kinetic_solubility
[19] = Solubility in compound in FassIF at pH 6.5 incubated for 24 hrs by HPLC-UV analysis; format: physicochemical
[20] = Plasma protein binding in cynomolgous monkey assessed as unbound fraction at 2 uM incubated for 4 hrs by LC-MS/MS analysis; format: ADME, cell-free, Macaca fascicularis; conditions: cynomolgus monkey
Cytochrome P450 2C19 = Cytochrome P450 2C19 (Homo sapiens, UniProt P33261); assay: Inhibition of CYP2C19 in human liver microsomes using S-mephenytoin 4-hydroxylation as substrate incubated for 10 mins in presence of NADPH by LC-MS/MS analysis; format: ADME, Microsome
Chain of Cytochrome P450 2C19 (P33261 whole entry): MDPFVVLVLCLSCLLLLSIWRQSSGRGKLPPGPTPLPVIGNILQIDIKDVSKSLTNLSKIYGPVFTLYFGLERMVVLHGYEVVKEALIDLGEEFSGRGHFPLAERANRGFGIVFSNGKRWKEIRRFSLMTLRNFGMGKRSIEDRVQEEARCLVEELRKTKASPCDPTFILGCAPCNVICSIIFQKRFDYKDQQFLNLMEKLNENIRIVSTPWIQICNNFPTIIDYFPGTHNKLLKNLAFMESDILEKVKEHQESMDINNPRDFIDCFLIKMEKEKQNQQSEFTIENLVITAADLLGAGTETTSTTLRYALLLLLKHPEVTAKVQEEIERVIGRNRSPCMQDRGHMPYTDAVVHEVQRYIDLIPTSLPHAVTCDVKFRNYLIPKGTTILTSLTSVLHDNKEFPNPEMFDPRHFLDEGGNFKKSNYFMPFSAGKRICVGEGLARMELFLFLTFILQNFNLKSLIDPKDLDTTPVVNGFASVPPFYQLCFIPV

[21] = Genotoxicity in Salmonella typhimurium TA98 incubated for 48 to 72 hrs in presence of S9 fraction by AMES test; format: toxicity, subcellular; conditions: salmonella enterica subsp. enterica serovar typhimurium, time 48-72 hrs
[22] = Genotoxicity in Salmonella typhimurium TA1537 incubated for 48 to 72 hrs in presence of S9 fraction by AMES test; format: toxicity, subcellular; conditions: salmonella enterica subsp. enterica serovar typhimurium, time 48-72 hrs
[23] = Effect on IL-2 secretion in human T cells by ELISA method; format: functional, cell-based; conditions: T-cell
[24] = Effect on IFN-gamma secretion in human T cells by ELISA method; format: functional, cell-based; conditions: T-cell
[25] = dog, in vivo, po, 2 mg/kg
[26] = cynomolgus monkey, in vivo, po, 2 mg/kg
in vivo [27] = conditions: Sprague-Dawley, rat, iv, 1 mg/kg
Description: Volume of distribution in Sprague-Dawley rat at 1 mg/kg, iv

in vivo [28] = conditions: Beagle, dog, po, 2 mg/kg
in vivo [29] = conditions: cynomolgus monkey, plasma, iv, 1 mg/kg
Description: Clearance in Cynomolgus monkey plasma at 1 mg/kg, iv

in vivo [30] = conditions: cynomolgus monkey, iv, 1 mg/kg
Description: Volume of distribution in Cynomolgus monkey at 1 mg/kg, iv

in vivo [31] = conditions: cynomolgus monkey, po, 2 mg/kg

Work on `COc1cc(Nc2ccc3c(n2)CN(C)C32CCN(C3COC3)CC2)c(C(N)=O)nc1-c1cccc2c1ncn2C` yielded an IC50 [1] of under 0.00051 µM, an IC50 [2] of 0.325 µM and a half-life [3] of 3.42 h. It also gave a bioavailability [4] of 34.7%, a half-life [5] of 1.45 h and an IC50 [6] of 0.521 µM. For the same compound, the IC50 [7] was over 10 µM, the IC50 [8] was 5.14 µM and the IC50 [9] was 0.5 µM. For the same compound, the IC50 [10] was over 10 µM, the IC50 [11] was over 10 µM and the IC50 [12] was over 10 µM. It also gave an IC50 [13] of 1.89 µM, a TGI (CT26 [14]) of 64.3% and a TGI (CT26 [15]) of 94.3%. For the same compound, the Activity [16] was “Non-toxic”, the inhibition in vivo at 3 mg/kg (MC-38) was 34.9% and the Activity [17] was “Non-toxic”. The solubility kinetic at 24 h [18] was 2.14 µM (≈ 1.19 µg/mL), the solubility at 24 h [19] was 18.9 µM (≈ 10.5 µg/mL) and the fraction unbound at 4 h, 2 µM [20] was 0.153. The IC50 (Cytochrome P450 2C19) was over 50 µM, the Activity [21] was “Non-toxic” and the Activity [22] was “Non-toxic”. The EC50 [23] was 0.0388 µM, the EC50 [24] was 0.0492 µM and the AUC/dose [25] was 563 ng·h/mL. The AUC/dose [26] was 560.5 ng·h/mL, the Vd (in vivo [27]) was 2.2 L/kg and the bioavailability (in vivo [28]) was 41.5%. For the same compound, the clearance (in vivo [29]) was 11.4 mL/min/kg, the Vd (in vivo [30]) was 5.07 L/kg and the bioavailability (in vivo [31]) was 42%.
